# Source: the supplement of paper PMC4862054
# System: CAL-120
# Assay: drug sensitivity score (DSS), CellTox Green (DSS (AUC-based score)); higher = stronger drug effect (viability inhibition or cytotoxicity); extreme values may be limits of the assay
# Conditions: incubation time: 72 h
# Procedure, shortened: (§1)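 Normalisation on every plate relied on 0.1 % DMSO and a positive kill control. The plates, 384-well format, held compound at 5 concentrations 10-fold apart across a compound-specific 10,000-fold range, and breast cancer cell lines in 20 µl suspension were incubated on them for 72 h before CellTox Green and then CellTiter-Glo readings. The drug sensitivity score derives from the area under the fitted dose-response curve.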
row,Structure (SMILES),drug sensitivity score
1,O=C(NC[C@H](O)CO)c1ccncc1Nc1ccc(I)cc1F [Pimasertib],2.8
2,O=C(CCBr)N1CCN(C(=O)CCBr)CC1 [Pipobroman],0
3,c1cc(CN2CCCNCCNCCCNCC2)ccc1CN1CCCNCCNCCCNCC1 [Plerixafor],0
4,Cn1cc(CNCC2CCN(c3ncc(C(=O)NO)cn3)CC2)c2ccccc21 [Quisinostat],13.6
5,CC(C)N(CCCNC(=O)Nc1ccc(C(C)(C)C)cc1)C[C@H]1O[C@@H](n2cc(Br)c3c(N)ncnc32)[C@H](O)[C@@H]1O [SGC0946],0

# System: CAL-51
# Assay: as above
# Conditions: incubation time: 72 h
# Procedure, shortened: as §1
row,Structure (SMILES),drug sensitivity score
1,Cc1cccc(-c2nn3c(c2-c2ccnc4ccc(C(N)=O)cc24)CCC3)n1 [Galunisertib],0
2,Nc1cccc2c1CN(C1CCC(=O)NC1=O)C2=O (centres undefined) [Lenalidomide],0
3,C[C@]12O[C@H](C[C@]1(O)CO)n1c3ccccc3c3c4c(c5c6ccccc6n2c5c31)CNC4=O [Lestaurtinib],0
4,O=C1c2c(O)ccc(O)c2C(=O)c2c(NCCNCCO)ccc(NCCNCCO)c21 [Mitoxantrone],3.21
5,Nc1ccccc1NC(=O)c1ccc(CNc2nccc(-c3cccnc3)n2)cc1 [Mocetinostat],8.87
6,COc1nc(N)nc2c1ncn2[C@@H]1O[C@H](CO)[C@@H](O)[C@@H]1O [Nelarabine],0
7,Cc1ccc(Nc2nccc(N(C)c3ccc4c(C)n(C)nc4c3)n2)cc1S(N)(=O)=O [Pazopanib],0
8,CS(=O)(=O)N1CCN(Cc2cc3nc(-c4cccc5[nH]ncc45)nc(N4CCOCC4)c3s2)CC1 [Pictilisib],4.02
9,O=C(NC[C@H](O)CO)c1ccncc1Nc1ccc(I)cc1F [Pimasertib],0
10,O=C(CCBr)N1CCN(C(=O)CCBr)CC1 [Pipobroman],0
11,c1cc(CN2CCCNCCNCCCNCC2)ccc1CN1CCCNCCNCCCNCC1 [Plerixafor],0
12,Cn1cc(CNCC2CCN(c3ncc(C(=O)NO)cn3)CC2)c2ccccc21 [Quisinostat],10.9
13,CC(C)N(CCCNC(=O)Nc1ccc(C(C)(C)C)cc1)C[C@H]1O[C@@H](n2cc(Br)c3c(N)ncnc32)[C@H](O)[C@@H]1O [SGC0946],0

# System: MDA-MB-436
# Assay: as above
# Conditions: incubation time: 72 h
# Procedure, shortened: as §1
row,Structure (SMILES),drug sensitivity score
1,Cc1cccc(-c2nn3c(c2-c2ccnc4ccc(C(N)=O)cc24)CCC3)n1 [Galunisertib],0.892
2,Nc1cccc2c1CN(C1CCC(=O)NC1=O)C2=O (centres undefined) [Lenalidomide],0
3,C[C@]12O[C@H](C[C@]1(O)CO)n1c3ccccc3c3c4c(c5c6ccccc6n2c5c31)CNC4=O [Lestaurtinib],8.14
4,O=C1c2c(O)ccc(O)c2C(=O)c2c(NCCNCCO)ccc(NCCNCCO)c21 [Mitoxantrone],0
5,Nc1ccccc1NC(=O)c1ccc(CNc2nccc(-c3cccnc3)n2)cc1 [Mocetinostat],10.1
6,COc1nc(N)nc2c1ncn2[C@@H]1O[C@H](CO)[C@@H](O)[C@@H]1O [Nelarabine],0
7,Cc1ccc(Nc2nccc(N(C)c3ccc4c(C)n(C)nc4c3)n2)cc1S(N)(=O)=O [Pazopanib],0
8,CS(=O)(=O)N1CCN(Cc2cc3nc(-c4cccc5[nH]ncc45)nc(N4CCOCC4)c3s2)CC1 [Pictilisib],0
9,O=C(NC[C@H](O)CO)c1ccncc1Nc1ccc(I)cc1F [Pimasertib],0
10,O=C(CCBr)N1CCN(C(=O)CCBr)CC1 [Pipobroman],0
11,c1cc(CN2CCCNCCNCCCNCC2)ccc1CN1CCCNCCNCCCNCC1 [Plerixafor],0
12,Cn1cc(CNCC2CCN(c3ncc(C(=O)NO)cn3)CC2)c2ccccc21 [Quisinostat],0
13,CC(C)N(CCCNC(=O)Nc1ccc(C(C)(C)C)cc1)C[C@H]1O[C@@H](n2cc(Br)c3c(N)ncnc32)[C@H](O)[C@@H]1O [SGC0946],0

# System: HDQ-P1
# Assay: as above
# Conditions: incubation time: 72 h
# Procedure, shortened: as §1
row,Structure (SMILES),drug sensitivity score
1,Cc1cccc(-c2nn3c(c2-c2ccnc4ccc(C(N)=O)cc24)CCC3)n1 [Galunisertib],0
2,Nc1cccc2c1CN(C1CCC(=O)NC1=O)C2=O (centres undefined) [Lenalidomide],0
3,C[C@]12O[C@H](C[C@]1(O)CO)n1c3ccccc3c3c4c(c5c6ccccc6n2c5c31)CNC4=O [Lestaurtinib],0
4,O=C1c2c(O)ccc(O)c2C(=O)c2c(NCCNCCO)ccc(NCCNCCO)c21 [Mitoxantrone],0
5,Nc1ccccc1NC(=O)c1ccc(CNc2nccc(-c3cccnc3)n2)cc1 [Mocetinostat],14.5
6,COc1nc(N)nc2c1ncn2[C@@H]1O[C@H](CO)[C@@H](O)[C@@H]1O [Nelarabine],0
7,Cc1ccc(Nc2nccc(N(C)c3ccc4c(C)n(C)nc4c3)n2)cc1S(N)(=O)=O [Pazopanib],0
8,CS(=O)(=O)N1CCN(Cc2cc3nc(-c4cccc5[nH]ncc45)nc(N4CCOCC4)c3s2)CC1 [Pictilisib],0
9,O=C(NC[C@H](O)CO)c1ccncc1Nc1ccc(I)cc1F [Pimasertib],0
10,O=C(CCBr)N1CCN(C(=O)CCBr)CC1 [Pipobroman],0
11,c1cc(CN2CCCNCCNCCCNCC2)ccc1CN1CCCNCCNCCCNCC1 [Plerixafor],0
12,Cn1cc(CNCC2CCN(c3ncc(C(=O)NO)cn3)CC2)c2ccccc21 [Quisinostat],1.56
13,CC(C)N(CCCNC(=O)Nc1ccc(C(C)(C)C)cc1)C[C@H]1O[C@@H](n2cc(Br)c3c(N)ncnc32)[C@H](O)[C@@H]1O [SGC0946],0
